# Data reported in ChEMBL document CHEMBL2157909, “Design, synthesis, spectral and biological evaluation of novel 1-allyl substituted 2,6-diphenylpiperidin-4-ones and its derivatives of oximes/oxime ethers” (2012).
# Key:
# Bacillus subtilis = experiment: Antibacterial activity against Bacillus subtilis ATCC 530 after 24 hrs by two fold serial dilution method; assay type: functional; conditions: ATCC 530, 24 h
# Penicillium chrysogenum = experiment: Antifungal activity against Penicillium chrysogenum ATCC 28089 after 72 to 96 hrs by two fold serial dilution method; assay type: functional
# Staphylococcus aureus = experiment: Antibacterial activity against Staphylococcus aureus ATCC 25930 after 24 hrs by two fold serial dilution method; assay type: functional; conditions: ATCC 25930, 24 h
# Aspergillus flavus = experiment: Antifungal activity against Aspergillus flavus ATCC 525 after 72 to 96 hrs by two fold serial dilution method; assay type: functional
# Pseudomonas = experiment: Antibacterial activity against Pseudomonas ATCC 27853 after 24 hrs by two fold serial dilution method; assay type: functional; conditions: ATCC 27853, 24 h
# Salmonella typhi = experiment: Antibacterial activity against Salmonella typhi ATCC 25021 after 24 hrs by two fold serial dilution method; assay type: functional, Salmonella enterica subsp. enterica serovar Typhi; conditions: Salmonella enterica, ATCC 25021, 24 h
# Fusarium oxysporum = experiment: Antifungal activity against Fusarium oxysporum ATCC 48112 after 72 to 96 hrs by two fold serial dilution method; assay type: functional
# Aspergillus niger = experiment: Antifungal activity against Aspergillus niger ATCC 635 after 72 to 96 hrs by two fold serial dilution method; assay type: functional
# Rhizopus = experiment: Antifungal activity against Rhizopus sp. ATCC 2842 after 72 to 96 hrs by two fold serial dilution method; assay type: functional
# Escherichia coli = experiment: Antibacterial activity against Escherichia coli ATCC 26032 after 24 hrs by two fold serial dilution method; assay type: functional; conditions: ATCC 26032, 24 h
compound,measurement,setting,value
C=CCN1[C@@H](c2ccccc2)C/C(=N/OCc2ccccc2)C[C@H]1c1ccccc1 (relative stereo),MIC,Bacillus subtilis,25 µg/mL
same,MIC,Penicillium chrysogenum,100 µg/mL
same,MIC,Staphylococcus aureus,50 µg/mL
same,MIC,Aspergillus flavus,100 µg/mL
same,MIC,Pseudomonas,200 µg/mL
same,MIC,Salmonella typhi,100 µg/mL
same,MIC,Fusarium oxysporum,50 µg/mL
same,MIC,Aspergillus niger,12.5 µg/mL
same,MIC,Rhizopus,50 µg/mL
same,MIC,Escherichia coli,6.25 µg/mL
C=CCN1[C@H](c2ccccc2)[C@@H](C)/C(=N/OCc2ccccc2)[C@@H](C)[C@@H]1c1ccccc1 (relative stereo),MIC,Bacillus subtilis,100 µg/mL
same,MIC,Penicillium chrysogenum,50 µg/mL
same,MIC,Staphylococcus aureus,12.5 µg/mL
same,MIC,Aspergillus flavus,100 µg/mL
same,MIC,Pseudomonas,25 µg/mL
same,MIC,Salmonella typhi,50 µg/mL
same,MIC,Fusarium oxysporum,50 µg/mL
same,MIC,Aspergillus niger,200 µg/mL
same,MIC,Rhizopus,100 µg/mL
same,MIC,Escherichia coli,100 µg/mL
C=CCN1[C@H](c2ccccc2)C/C(=N\OCc2ccccc2)[C@@H](CC)[C@@H]1c1ccccc1 (relative stereo),MIC,Bacillus subtilis,50 µg/mL
same,MIC,Penicillium chrysogenum,12.5 µg/mL
same,MIC,Staphylococcus aureus,200 µg/mL
same,MIC,Aspergillus flavus,100 µg/mL
same,MIC,Pseudomonas,100 µg/mL
same,MIC,Salmonella typhi,25 µg/mL
same,MIC,Fusarium oxysporum,25 µg/mL
same,MIC,Aspergillus niger,50 µg/mL
same,MIC,Rhizopus,12.5 µg/mL
same,MIC,Escherichia coli,6.25 µg/mL
C=CCN1[C@@H](c2ccccc2)C(C)(C)/C(=N/OCc2ccccc2)C[C@H]1c1ccccc1 (relative stereo),MIC,Bacillus subtilis,6.25 µg/mL
same,MIC,Penicillium chrysogenum,6.25 µg/mL
same,MIC,Staphylococcus aureus,50 µg/mL
same,MIC,Aspergillus flavus,12.5 µg/mL
same,MIC,Pseudomonas,25 µg/mL
same,MIC,Salmonella typhi,12.5 µg/mL
same,MIC,Fusarium oxysporum,12.5 µg/mL
same,MIC,Aspergillus niger,25 µg/mL
same,MIC,Rhizopus,50 µg/mL
same,MIC,Escherichia coli,50 µg/mL
C=CCN1[C@@H](c2ccccc2)C(C)(C)C(=O)C[C@H]1c1ccccc1 (relative stereo),MIC,Bacillus subtilis,100 µg/mL
same,MIC,Penicillium chrysogenum,25 µg/mL
same,MIC,Staphylococcus aureus,25 µg/mL
same,MIC,Aspergillus flavus,25 µg/mL
same,MIC,Pseudomonas,25 µg/mL
same,MIC,Salmonella typhi,12.5 µg/mL
same,MIC,Fusarium oxysporum,50 µg/mL
same,MIC,Aspergillus niger,50 µg/mL
same,MIC,Rhizopus,100 µg/mL
same,MIC,Escherichia coli,25 µg/mL
C=CCN1[C@H](c2ccccc2)C/C(=N\O)[C@@H](C)[C@@H]1c1ccccc1 (relative stereo),MIC,Bacillus subtilis,50 µg/mL
same,MIC,Penicillium chrysogenum,100 µg/mL
same,MIC,Staphylococcus aureus,100 µg/mL
same,MIC,Aspergillus flavus,200 µg/mL
same,MIC,Pseudomonas,200 µg/mL
same,MIC,Salmonella typhi,100 µg/mL
same,MIC,Fusarium oxysporum,100 µg/mL
same,MIC,Aspergillus niger,50 µg/mL
same,MIC,Rhizopus,25 µg/mL
same,MIC,Escherichia coli,50 µg/mL
C=CCN1[C@H](c2ccc(Cl)cc2)C/C(=N\O)[C@@H](C)[C@@H]1c1ccc(Cl)cc1 (relative stereo),MIC,Bacillus subtilis,50 µg/mL
same,MIC,Penicillium chrysogenum,50 µg/mL
same,MIC,Staphylococcus aureus,6.25 µg/mL
same,MIC,Aspergillus flavus,50 µg/mL
same,MIC,Pseudomonas,50 µg/mL
same,MIC,Salmonella typhi,12.5 µg/mL
same,MIC,Fusarium oxysporum,12.5 µg/mL
same,MIC,Aspergillus niger,6.25 µg/mL
same,MIC,Rhizopus,25 µg/mL
same,MIC,Escherichia coli,100 µg/mL
C=CCN1[C@H](c2ccc(OC)cc2)C/C(=N\O)[C@@H](C)[C@@H]1c1ccc(OC)cc1 (relative stereo),MIC,Bacillus subtilis,100 µg/mL
same,MIC,Penicillium chrysogenum,100 µg/mL
same,MIC,Staphylococcus aureus,25 µg/mL
same,MIC,Aspergillus flavus,12.5 µg/mL
same,MIC,Pseudomonas,12.5 µg/mL
same,MIC,Salmonella typhi,100 µg/mL
same,MIC,Fusarium oxysporum,25 µg/mL
same,MIC,Aspergillus niger,50 µg/mL
same,MIC,Rhizopus,25 µg/mL
same,MIC,Escherichia coli,50 µg/mL
C[C@@H]1[C@H](O)[C@@H](C)/C=C/C=C/C=C/C=C/C=C/C=C/C=C/[C@H](O[C@@H]2O[C@H](C)[C@@H](O)[C@H](N)[C@@H]2O)C[C@@H]2O[C@](O)(C[C@@H](O)C[C@@H](O)[C@H](O)CC[C@@H](O)C[C@@H](O)CC(=O)O[C@H]1C)C[C@H](O)[C@H]2C(=O)O [AMPHOTERICIN B],MIC,Penicillium chrysogenum,12.5 µg/mL
same,MIC,Aspergillus flavus,50 µg/mL
same,MIC,Fusarium oxysporum,50 µg/mL
same,MIC,Aspergillus niger,50 µg/mL
same,MIC,Rhizopus,25 µg/mL
CN[C@@H]1[C@H](O[C@H]2[C@H](O[C@H]3[C@H](O)[C@@H](O)[C@H](N=C(N)N)[C@@H](O)[C@@H]3N=C(N)N)O[C@@H](C)[C@]2(O)C=O)O[C@@H](CO)[C@H](O)[C@H]1O [STREPTOMYCIN],MIC,Bacillus subtilis,12.5 µg/mL
same,MIC,Staphylococcus aureus,50 µg/mL
same,MIC,Pseudomonas,25 µg/mL
same,MIC,Salmonella typhi,50 µg/mL
same,MIC,Escherichia coli,12.5 µg/mL
